Measurements: article PMC7606800 (The Science of the total environment, 2020)

Target: NfnB (PpNfnB) (Pseudomonas putida, UniProt Q88K59)
Experiment: nitroreduction, HPLC-ICP-MS
Type: biochemical
Settings: 4 uM substrate, 1 uM enzyme, 0.2 mM NADPH, 25 uM FMN, pH 7.0, 37 °C

O=[N+]([O-])c1ccc([As](=O)(O)O)cc1 [Nit(V), 4-nitrophenylarsonic acid]
nitroreduction, HPLC-ICP-MS: NfnB also reduces Nit(V) to p-ASA(V)
